Read-outs that look alike come from different tables or passages of the source. Blank lines part the entries; values can stand above or below the compound they belong to.
System: MT4 cell line
Details: human, 14 days
Procedure: Several suitable cell lines supporting HIV growth are readily available including lines include those supporting HIV growth including the CEM×174 cell line derived from Swedish Institute for Infectious Disease Control (SMI) Sweden, MT-4 (commercially available) and Hep G2 (commercially available).
In short, 100 ul cells are seeded in a 96-well plate at a concentration of 1×10^4 cells/ml, at exponential growth were cultured in RPMI 1640 medium (from Gibco) supplemented with 10% heat-inactivated fetal bovine serum (from Gibco) and Penicillin-Streptomycin (from Gibco). The medium is changed every 3 or 4 days, and cells are subcultured once a week at a dilution of 1:10. All cultures are routinely checked for Mycoplasma infection and grown at 37° C. in a humidified 5% CO2 atmosphere.
All drugs tested were first dissolved at 10 mM in dimethyl sulfoxide (DMSO) before further dilution to the appropriate concentration in the culture medium. The analysis of mitochondrial DNA was performed by using Taqman technology as previously reported (Zhang, H et al. Mol. Pharmacol 1994 46:1063-1069), with modifications, and is briefly described below.
The cells are treated for a series of durations with the test drugs, such as alovudine, fosalvudine, zidovudine, abacavir etc or various combinations of alovudine/fosalvudine and zidovudine/abacavir. The various ratios indicated in the respective Tables. After 14 days of drug exposure, cells are collected. Total cellular DNA was prepared using the QiAamp DNA blood Mini kit (QIAGEN, Chatsworth, Calif.), following the supplier's instructions for the Qiagene Blood&Body Fluid Spin Protocol, and subject to DNA amplification.
The probes of mitochondrial DNA Taqman and human nuclear DNA were prepared from Applied Biosystems, which employs an internal quenched DNA probe utilizing fluorescence resonance energy transfer (FRET) to generate a spectroscopic response due to 5′->3′ exonuclease activity of Taq DNA polymerase during DNA amplification. […] It is a fully integrated system for real-time detection of PCR using ABI PRISM 7700 and TaqMan reagents for the fluorogenic 5′ nuclease assay.
The cell growth was controlled by cellular nuclear DNA ([…] ribosomal DNA).
The above described assay was performed in the MT4 cell line derived from a T lymphocyte.

Inhibition of mitochondrial DNA, % (1 uM): 18% | Inhibition of mitochondrial DNA, % (20 uM): 51%
Compound: Nc1nc(NC2CC2)c2ncn([C@H]3C=C[C@@H](CO)C3)c2n1 [abacavir]
Mean qty mt DNA (1 uM): 756544 | Mean qty mt DNA (20 uM): 506181

% Reduction mt/n DNA (0.1 uM): 13% | % reduction mt DNA (0.1 uM): 44% | % reduction n DNA (0.1 uM): 35% | Inhibition of mitochondrial DNA % (0.1 uM): 70% | Inhibition of mitochondrial DNA, % (0.1 uM): 40% | Ratio Mitochondrial: Nuclear DNA (0.1 uM): 0.45 | Relative no. copies mt DNA (0.1 uM): 434709 | Relative no. copies n DNA (0.1 uM): 956331 | Inhibition of mitochondrial DNA, % (0.2 uM): 82% | % Reduction mt/n DNA (0.3 uM): 59% | % reduction mt DNA (0.3 uM): 68% | % reduction n DNA (0.3 uM): 22% | Inhibition of mitochondrial DNA % (0.3 uM): 95% | Ratio Mitochondrial: Nuclear DNA (0.3 uM): 0.21 | Relative no. copies mt DNA (0.3 uM): 247481 | Relative no. copies n DNA (0.3 uM): 1160000 | % Reduction mt/n DNA (0.6 uM): 89% | % reduction mt DNA (0.6 uM): 88% | % reduction n DNA (0.6 uM): 0% | Ratio Mitochondrial: Nuclear DNA (0.6 uM): 0.06 | Relative no. copies mt DNA (0.6 uM): 96998 | Relative no. copies n DNA (0.6 uM): 1740000 | Inhibition of mitochondrial DNA % (1 uM): 100%
Compound: Cc1cn([C@H]2C[C@H](F)[C@@H](CO)O2)c(=O)[nH]c1=O [alovudine, 2′,3′-dideoxy-3′-fluorothymidine]
Mean qty mt DNA (0.1 uM): 549900 | Mean qty mt DNA (0.2 uM): 187574

Inhibition of mitochondrial DNA % (1 uM): 0% | Inhibition of mitochondrial DNA % (3 uM): 0% | % Reduction mt/n DNA (10 uM): 0% | % reduction mt DNA (10 uM): 0% | % reduction n DNA (10 uM): 40% | Inhibition of mitochondrial DNA % (10 uM): 0% | Ratio Mitochondrial: Nuclear DNA (10 uM): 0.96 | Relative no. copies mt DNA (10 uM): 856782 | Relative no. copies n DNA (10 uM): 891446 | % Reduction mt/n DNA (30 uM): 0% | % reduction mt DNA (30 uM): 0% | % reduction n DNA (30 uM): 43% | Inhibition of mitochondrial DNA, % (30 uM): 0% | Ratio Mitochondrial: Nuclear DNA (30 uM): 1.19 | Relative no. copies mt DNA (30 uM): 993321 | Relative no. copies n DNA (30 uM): 836935 | % Reduction mt/n DNA (60 uM): 0% | % reduction mt DNA (60 uM): 4% | % reduction n DNA (60 uM): 40% | Ratio Mitochondrial: Nuclear DNA (60 uM): 0.84 | Relative no. copies mt DNA (60 uM): 748730 | Relative no. copies n DNA (60 uM): 890663
Compound: Cc1cn([C@H]2C[C@H](N=[N+]=[N-])[C@@H](CO)O2)c(=O)[nH]c1=O [zidovudine, 2′3′-dideoxy-3′-azido-thymidine]
Mean qty (mitochondrial DNA) (30 uM): 1410000

Source: US20130217646A1, “COMBINATION OF ALOVUDINE AND ZIDOVUDINE IN A MOLAR RATIO OF 1:100 TO 1:350” (MEDIVIR AB, priority 2006, published 2013)
